Data reported in article PMC8943139, “Cryo-EM structure of transmembrane AAA+ protease FtsH in the ADP state” (Communications Biology, 2022).

Legend:
[1] = target: T1, TmFtsH (FtsH from Thermotoga maritima), full length (Thermotoga maritima, UniProt Q9WZ49, H423Y); experiment: cryo-EM structure ([…] A); type: binding; conditions: six ADP per hexamer, one in each ATPase domain; endogenous co-purified ADP, none added; MSP1D1 nanodiscs, pH 7.6; C6 symmetry
T1 construct: full length, His-tag purification (HisTrap), E. coli BL21(DE3) pLysS membranes, LDAO, reconstituted in MSP1D1 nanodiscs with soybean polar lipids; homohexamer; only ATPase and protease domains modelled (2484 residues per hexamer)

[2] = target: the molecule itself; experiment: cryo-EM structure; TmFtsH H423Y in MSP1D1 nanodiscs (soybean polar lipids), diluted in 20 mM HEPES pH 7.6, 100 mM NaCl, 0.05% CHAPS; no ADP or ATP added; C6 reconstruction at 3.15 Å (C1: 3.4 Å) of the ATPase and protease domains; full-length reconstruction at 7.9 Å without symmetry

Row | Molecule | cryo-EM structure (3.15 A) [1] | stoichiometry N [2]
1 | Nc1ncnc2c1ncn2[C@@H]1O[C@H](COP(=O)(O)OP(=O)(O)O)[C@@H](O)[C@H]1O [ADP] | ADP bound endogenously to TmFtsH and survived the co-purification and reconstitution processes | –
2 | Thermotoga maritima FtsH (TmFtsH) H423Y mutant, full length (enzyme, UniProt Q9WZ49 1-610, looked up, FtsH (Filamentation Temperature Sensitive Protein H) of Thermotoga maritima, full-length cDNA in the pET24-derived pMSCG-7 plasmid, with the H423Y mutation; 610 residues are named in the comparison with YME1; The vector probably adds an N-terminal His6 tag with a TEV site (surmised), and no cleavage is described; The atomic model 7TDO covers only the ATPase and protease domains (2484 residues in …)) MNRSNIWNLLFTILIIVTLFWLARFFYVENSPVSKLSYTSFVQMVEDERSVVSEVVIRDDGVLRVYTKDGRVYEVDAPWAVNDSQLIEKLVSKGIKVSGERSGSSSFWINVLGTLIPTILFIVVWLFIMRSLSGRNNQAFTFTKSRATMYKPSGNKRVTFKDVGGAEEAIEELKEVVEFLKDPSKFNRIGARMPKGILLVGPPGTGKTLLARAVAGEANVPFFHISGSDFVELFVGVGAARVRDLFAQAKAHAPCIVFIDEIDAVGRHRGAGLGGGHDEREQTLNQLLVEMDGFDSKEGIIVMAATNRPDILDPALLRPGRFDKKIVVDPPDMLGRKKILEIHTRNKPLAEDVNLEIIAKRTPGFVGADLENLVNEAALLAAREGRDKITMKDFEEAIDRVIAGPARKSKLISPKEKRIIAYYEAGHAVVSTVVPNGEPVHRISIIPRGYKALGYTLHLPEEDKYLVSRNELLDKLTALLGGRAAEEVVFGDVTSGAANDIERATEIARNMVCQLGMSEELGPLAWGKEEQEVFLGKEITRLRNYSEEVASKIDEEVKKIVTNCYERAKEIIRKYRKQLDNIVEILLEKETIEGDELRRILSEEFEKVVE | – | 6
